Key:
KHYG-1 (IL-2 2.5 ng/mL) [1] = assay: drug sensitivity score (DSS) (DSS units); higher = more sensitive; extreme values may be limits of the assay; details: 72 h
IMC-1 (IL-2 20 ng/mL) [2] = assay: as above; details: 72 h
NKL (IL-2 2.5 ng/mL) [3] = assay: as above; details: 72 h
YT (IL-2 2.5 ng/mL) [4] = assay: as above; details: 72 h
NK-YS (IL-2 2.5 ng/mL) [5] = assay: as above; details: 72 h
[6] = tested on: normal primary NK cells, pool 1 (3 donors) (IL-2 2.5 ng/mL); assay: as above; details: 72 h
SNK-6 (IL-2 2.5 ng/mL) [7] = assay: as above; details: 72 h
[8] = tested on: normal primary NK cells, pool 3 (3 donors) (IL-2 2.5 ng/mL); assay: as above; details: 72 h
KAI3 (IL-2 2.5 ng/mL) [9] = assay: as above; details: 72 h
[10] = tested on: normal primary NK cells, pool 1 (3 donors), resting (IL-2 0 ng/mL); assay: as above; details: 72 h
NK-92 (IL-2 2.5 ng/mL) [11] = assay: as above; details: 72 h
[12] = tested on: normal primary NK cells, pool 2 (3 donors) (IL-2 2.5 ng/mL); assay: as above; details: 72 h
DERL-7 (IL-2 2.5 ng/mL) [13] = assay: as above; details: 72 h
[14] = tested on: normal NK cells expanded with K562-aAPC; assay: percent inhibition of viability; higher = more inhibition; details: 72 h, IL-2 2.5 ng/mL
Method: (§1)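 Drug sensitivity and resistance testing on K562-aAPC-expanded normal NK cells: 5 concentrations (10-fold steps over a 10,000-fold range), 72 h at 37 °C, viability by CellTiter-Glo normalised to DMSO and benzethonium chloride controls; DSS from the fitted curve.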

[15] = tested on: normal NK cells expanded with K562-aAPC; assay: drug sensitivity score (DSS) (DSS units); higher = more sensitive; extreme values may be limits of the assay; details: 72 h; IL-2 2.5 ng/mL
Method: as §1

KHYG-1 (IL-2 2.5 ng/mL) [16] = assay: percent inhibition of viability; higher = more inhibition; details: 72 h
IMC-1 (IL-2 20 ng/mL) [17] = assay: as above; details: 72 h
NKL (IL-2 2.5 ng/mL) [18] = assay: as above; details: 72 h
YT (IL-2 2.5 ng/mL) [19] = assay: as above; details: 72 h
NK-YS (IL-2 2.5 ng/mL) [20] = assay: as above; details: 72 h
[21] = tested on: normal primary NK cells, pool 1 (3 donors) (IL-2 2.5 ng/mL); assay: as above; details: 72 h
SNK-6 (IL-2 2.5 ng/mL) [22] = assay: as above; details: 72 h
[23] = tested on: normal primary NK cells, pool 3 (3 donors) (IL-2 2.5 ng/mL); assay: as above; details: 72 h
KAI3 (IL-2 2.5 ng/mL) [24] = assay: as above; details: 72 h
[25] = tested on: normal primary NK cells, pool 1 (3 donors), resting (IL-2 0 ng/mL); assay: as above; details: 72 h
NK-92 (IL-2 2.5 ng/mL) [26] = assay: as above; details: 72 h
[27] = tested on: normal primary NK cells, pool 2 (3 donors) (IL-2 2.5 ng/mL); assay: as above; details: 72 h
DERL-7 (IL-2 2.5 ng/mL) [28] = assay: as above; details: 72 h

CC(C)[C@H]1C(=O)N[C@@H](CCCNC(=N)N)C(=O)NCC(=O)N[C@@H](CC(=O)O)C(=O)N[C@H](Cc2ccccc2)C(=O)N1C [Cilengitide] (max concentration tested 10000 nM)
Details | drug sensitivity score
DERL-7 (IL-2 2.5 ng/mL) [13] | 0
IMC-1 (IL-2 20 ng/mL) [2] | 0
KAI3 (IL-2 2.5 ng/mL) [9] | 0
KHYG-1 (IL-2 2.5 ng/mL) [1] | 0
NK-92 (IL-2 2.5 ng/mL) [11] | 0
NK-YS (IL-2 2.5 ng/mL) [5] | 0
NKL (IL-2 2.5 ng/mL) [3] | 0
SNK-6 (IL-2 2.5 ng/mL) [7] | 0
YT (IL-2 2.5 ng/mL) [4] | 0
[6] | 0
[8] | 0
[10] | 0
[12] | 0
[15] | 0

percent inhibition of viability [%]
Details | 1 nM | 10 nM | 100 nM | 1000 nM | 10000 nM
DERL-7 (IL-2 2.5 ng/mL) [28] | 1.94 | -0.89 | 5.16 | -1.67 | 1.74
IMC-1 (IL-2 20 ng/mL) [17] | -4.13 | -2.67 | -2.6 | -4.07 | -10
KAI3 (IL-2 2.5 ng/mL) [24] | 0.99 | -4.51 | 0.53 | -7.41 | -4.2
KHYG-1 (IL-2 2.5 ng/mL) [16] | -4.74 | -8.58 | -8.46 | -5.89 | -5.46
NK-92 (IL-2 2.5 ng/mL) [26] | -6.89 | -15.6 | -2.78 | -19.4 | -3.46
NK-YS (IL-2 2.5 ng/mL) [20] | 3.77 | -3.77 | -3.08 | -1.52 | -1.33
NKL (IL-2 2.5 ng/mL) [18] | -5.73 | -8.69 | -8.49 | -3.48 | -5.17
SNK-6 (IL-2 2.5 ng/mL) [22] | 5.33 | -1.64 | -18.7 | -5.25 | -3.56
YT (IL-2 2.5 ng/mL) [19] | -3.44 | -9.37 | -2 | -8.27 | -2.28
[14] | -8.83 | -11.2 | -7.88 | -10.2 | -11.3
[21] | -11.5 | -10.7 | -11.7 | -4.42 | -5.41
[23] | -10.7 | -5.35 | -6.3 | -9.92 | -10.2
[25] | -16.2 | -13.2 | -18.2 | -14 | -17.6
[27] | -8.85 | -4.43 | -5.82 | -9.18 | -7.87

Nc1nc(Cl)nc2c1ncn2[C@H]1C[C@H](O)[C@@H](CO)O1 [Cladribine] (max concentration tested 1000 nM)
Details | drug sensitivity score
DERL-7 (IL-2 2.5 ng/mL) [13] | 15.4
IMC-1 (IL-2 20 ng/mL) [2] | 12.5
KAI3 (IL-2 2.5 ng/mL) [9] | 12.2
KHYG-1 (IL-2 2.5 ng/mL) [1] | 18.2
NK-92 (IL-2 2.5 ng/mL) [11] | 17.1
NK-YS (IL-2 2.5 ng/mL) [5] | 6.1
NKL (IL-2 2.5 ng/mL) [3] | 17.6
SNK-6 (IL-2 2.5 ng/mL) [7] | 13.8
YT (IL-2 2.5 ng/mL) [4] | 3.98
[6] | 20.3
[8] | 18.4
[10] | 23.5
[12] | 20.3
[15] | 22.4

percent inhibition of viability [%]
Details | 0.1 nM | 1 nM | 10 nM | 100 nM | 1000 nM
DERL-7 (IL-2 2.5 ng/mL) [28] | -4.72 | -1.74 | 2.44 | 83.3 | 100
IMC-1 (IL-2 20 ng/mL) [17] | -1.93 | -4.54 | -8.55 | 59.4 | 99.9
KAI3 (IL-2 2.5 ng/mL) [24] | -17.3 | -11.1 | -4.18 | 61.5 | 92.2
KHYG-1 (IL-2 2.5 ng/mL) [16] | -2.1 | -6.64 | 0.12 | 102 | 99.4
NK-92 (IL-2 2.5 ng/mL) [26] | -7.06 | -4.86 | 2.88 | 92.3 | 97.7
NK-YS (IL-2 2.5 ng/mL) [20] | -8.76 | -10.6 | -9.2 | 7.65 | 88.2
NKL (IL-2 2.5 ng/mL) [18] | -13.2 | -8.81 | -9.87 | 104 | 98.6
SNK-6 (IL-2 2.5 ng/mL) [22] | 11.6 | 5.52 | 8.41 | 66.9 | 91.5
YT (IL-2 2.5 ng/mL) [19] | -4 | -5.35 | -6.95 | 5.62 | 56.9
[14] | -1.61 | -1.55 | 30.3 | 100 | 100
[21] | -5.25 | -7.26 | 23.2 | 93.1 | 96.5
[23] | -12.6 | -10.5 | 18.2 | 87.7 | 97
[25] | -18.2 | -14.8 | 62 | 90.2 | 90
[27] | -13.2 | -12.7 | 24.4 | 90.6 | 93.7

O=P1(N(CCCl)CCCl)NCCCO1 (stereo unspecified) [Cyclophosphamide] (max concentration tested 40000 nM)
Details | drug sensitivity score
DERL-7 (IL-2 2.5 ng/mL) [13] | 0
IMC-1 (IL-2 20 ng/mL) [2] | 0
KAI3 (IL-2 2.5 ng/mL) [9] | 3.77
KHYG-1 (IL-2 2.5 ng/mL) [1] | 0
NK-92 (IL-2 2.5 ng/mL) [11] | 0
NK-YS (IL-2 2.5 ng/mL) [5] | 0
NKL (IL-2 2.5 ng/mL) [3] | 0
SNK-6 (IL-2 2.5 ng/mL) [7] | 0
YT (IL-2 2.5 ng/mL) [4] | 0
[6] | 1.52
[8] | 0.44
[10] | 6.32
[12] | 1.01
[15] | 1.42

percent inhibition of viability [%]
Details | 4 nM | 40 nM | 400 nM | 4000 nM | 40000 nM
DERL-7 (IL-2 2.5 ng/mL) [28] | -4.46 | -3.5 | -1.09 | -0.28 | 5.07
IMC-1 (IL-2 20 ng/mL) [17] | -3.57 | -3.7 | -1.67 | -7.03 | -3.85
KAI3 (IL-2 2.5 ng/mL) [24] | -3.45 | 3.79 | 4.87 | 17.2 | 40.9
KHYG-1 (IL-2 2.5 ng/mL) [16] | -3.97 | -6.87 | -6.42 | -6.18 | -3.6
NK-92 (IL-2 2.5 ng/mL) [26] | -18.2 | -9.83 | -4.39 | -1.7 | 10.6
NK-YS (IL-2 2.5 ng/mL) [20] | -5.26 | -6.65 | -2.31 | -4.3 | 5.51
NKL (IL-2 2.5 ng/mL) [18] | -11.1 | -8.19 | -4.09 | -3.02 | 8.99
SNK-6 (IL-2 2.5 ng/mL) [22] | 7.84 | -6.82 | 9.06 | -4.15 | 10.8
YT (IL-2 2.5 ng/mL) [19] | -4.55 | -6.6 | -7.59 | -8.95 | -8.31
[14] | 1.23 | -1.48 | -6.12 | -0.37 | 32.1
[21] | -10.4 | -10.4 | -10.4 | 1.26 | 30.9
[23] | -7.23 | -5.67 | -9.18 | 0.96 | 16.7
[25] | -3.08 | -15.2 | -6.52 | 18.4 | 64.8
[27] | -11 | -0.5 | -0.82 | 2.11 | 21.8

Nc1ccn([C@@H]2O[C@H](CO)[C@@H](O)[C@@H]2O)c(=O)n1 [Cytarabine] (max concentration tested 10000 nM)
Details | drug sensitivity score
DERL-7 (IL-2 2.5 ng/mL) [13] | 31.5
IMC-1 (IL-2 20 ng/mL) [2] | 25
KAI3 (IL-2 2.5 ng/mL) [9] | 26.2
KHYG-1 (IL-2 2.5 ng/mL) [1] | 30.8
NK-92 (IL-2 2.5 ng/mL) [11] | 23.6
NK-YS (IL-2 2.5 ng/mL) [5] | 16
NKL (IL-2 2.5 ng/mL) [3] | 24.4
SNK-6 (IL-2 2.5 ng/mL) [7] | 19.1
YT (IL-2 2.5 ng/mL) [4] | 3.34
[6] | 7.89
[8] | 5.19
[10] | 8.4
[12] | 6.63
[15] | 19

percent inhibition of viability [%]
Details | 1 nM | 10 nM | 100 nM | 1000 nM | 10000 nM
DERL-7 (IL-2 2.5 ng/mL) [28] | -3.03 | 23.2 | 88.8 | 98.1 | 99.7
IMC-1 (IL-2 20 ng/mL) [17] | -2.71 | -1.64 | 59.5 | 98.2 | 99.6
KAI3 (IL-2 2.5 ng/mL) [24] | -13.4 | 12.5 | 67.4 | 95.8 | 95.5
KHYG-1 (IL-2 2.5 ng/mL) [16] | -3.64 | 17.1 | 88.3 | 105 | 102
NK-92 (IL-2 2.5 ng/mL) [26] | 0.96 | 0.98 | 50.8 | 95.5 | 97.8
NK-YS (IL-2 2.5 ng/mL) [20] | -6.32 | -1.48 | 14 | 77.5 | 92.9
NKL (IL-2 2.5 ng/mL) [18] | -6.71 | 6.58 | 60.2 | 94.3 | 93.6
SNK-6 (IL-2 2.5 ng/mL) [22] | 18.7 | 4.98 | 31.7 | 83.1 | 97.5
YT (IL-2 2.5 ng/mL) [19] | -3.82 | 0.15 | -0.65 | 19.1 | 28.4
[14] | 0.23 | -1.23 | 28.7 | 84.4 | 98.9
[21] | -4.48 | -4.56 | -4.83 | 23 | 80.4
[23] | -11.3 | -7.93 | -9.4 | 7.11 | 73.2
[25] | -11.7 | -15.1 | -18.8 | 29.4 | 78.7
[27] | -14.2 | -13.4 | -1.98 | 13.2 | 79.9

Reference: the supplement of paper PMC5908809
